Experimental data: patent US9637460B2, “Isotopically enriched arylsulfonamide CCR3 antagonists” (Axikin Pharmaceuticals, Inc., priority 2012, dated 2017)
Where two headings read alike, the source gives them in different places.

What was measured:
[1] = Pharmacokinetic studies in rats; details: rat, in vivo, 3 mg/kg, 3 mg/kg in EtOH/Solutol/H2O formulation
Protocol: Pharmacokinetic properties of 4-(3,5-dichloro-2,4,6-trideuteriumphenoxy)-3-(3-oxo-piperazine-1-sulfonyl)-2,5,6-trideuteriumbenzonitrile 36 and 4-(3,5-dichlorophenoxy)-3-(3-oxo-piperazine-1-sulfonyl)benzonitrile C1 were determined using rats. Animals were randomized into two groups, each having 3 rats. 4-(3,5-Dichloro-2,4,6-trideuteriumphenoxy)-3-(3-oxo-piperazine-1-sulfonyl)-2,5,6-trideuteriumbenzonitrile 36 and 4-(3,5-dichlorophenoxy)-3-(3-oxo-piperazine-1-sulfonyl)benzonitrile C1 were administered at 3 mg/kg in EtOH/Solutol/H2O formulations. Pharmacokinetic parameters of 4-(3,5-dichloro-2,4,6-trideuteriumphenoxy)-3-(3-oxo-piperazine-1-sulfonyl)-2,5,6-trideuteriumbenzonitrile 36 and 4-(3,5-dichlorophenoxy)-3-(3-oxo-piperazine-1-sulfonyl)benzonitrile C1 are summarized in Table 2. 4-(3,5-dichlorophenoxy)-3-(3-oxo-piperazine-1-sulfonyl)benzonitrile C1 was synthesized according to the procedure as described in U.S. Pat. App. Pub. No.: US 2011/0218207, the disclosure of which is incorporated herein by reference in its entirety.

SMILES | Cmax ([1]; Rat 1) | Tmax ([1]; Rat 1) | half-life ([1]; Rat 1) | AUC ([1]; Rat 1, read-out: AUC) | AUC ([1]; Rat 1, read-out: AUCnorm) | Cmax ([1]; Rat 2) | Tmax ([1]; Rat 2) | half-life ([1]; Rat 2) | AUC ([1]; Rat 2, read-out: AUC) | AUC ([1]; Rat 2, read-out: AUCnorm) | Cmax ([1]; Rat 3) | Tmax ([1]; Rat 3) | half-life ([1]; Rat 3) | AUC ([1]; Rat 3, read-out: AUC) | AUC ([1]; Rat 3, read-out: AUCnorm) | melting point
[2H]c1c(Cl)c([2H])c(Oc2c([2H])c([2H])c(C#N)c([2H])c2S(=O)(=O)N2CCNC(=O)C2)c([2H])c1Cl [Compound 36, 4-(3,5-dichloro-2,4,6-trideuteriumphenoxy)-3-(3-oxo-piperazine-1-sulfonyl)-2,5,6-trideuteriumbenzonitrile] | 166 ng/mL | 2 h | 3.3 h | 820 ng·h/mL | 273 ng·h/mL | 46.3 ng/mL | 4 h | 1.12 h | 272 ng·h/mL | 90.6 ng·h/mL | 128 ng/mL | 0.3 h | 1.51 h | 490 ng·h/mL | 163 ng·h/mL | 207 to 210 °C
N#Cc1ccc(Oc2cc(Cl)cc(Cl)c2)c(S(=O)(=O)N2CCNC(=O)C2)c1 [Compound C1, 4-(3,5-dichlorophenoxy)-3-(3-oxo-piperazine-1-sulfonyl)benzonitrile, reference compound] | 34.4 ng/mL | 2 h | 5.52 h | 200 ng·h/mL | 66.6 ng·h/mL | 65.8 ng/mL | 4 h | 3.72 h | 450 ng·h/mL | 150 ng·h/mL | 59.9 ng/mL | 2 h | 4.04 h | 317 ng·h/mL | 106 ng·h/mL | –
